The results in this text go back to patent US10106510B2, “Substituted isoxazoles for treating cancer” (EPIZYME, INC., priority 2014, dated 2018).

Structures are written as SMILES.

The term IC50 denotes the concentration needed to halve the response being measured.

Sequence of SMYD3 (Q9H7B4 whole entry): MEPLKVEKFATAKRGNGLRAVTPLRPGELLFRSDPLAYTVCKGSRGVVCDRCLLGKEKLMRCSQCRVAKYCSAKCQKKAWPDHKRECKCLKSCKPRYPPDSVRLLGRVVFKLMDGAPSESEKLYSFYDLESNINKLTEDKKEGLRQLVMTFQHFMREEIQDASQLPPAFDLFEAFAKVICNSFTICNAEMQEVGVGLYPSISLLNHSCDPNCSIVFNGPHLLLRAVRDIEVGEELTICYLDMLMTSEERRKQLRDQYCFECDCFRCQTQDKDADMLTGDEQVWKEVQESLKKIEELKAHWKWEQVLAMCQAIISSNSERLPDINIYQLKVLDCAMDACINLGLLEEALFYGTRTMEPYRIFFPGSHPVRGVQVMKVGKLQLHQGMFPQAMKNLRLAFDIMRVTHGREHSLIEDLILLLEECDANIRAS

In the assay the target is SMYD3 (Homo sapiens (Human), UniProt Q9H7B4). In words: SMYD3 biochemical assay (SMYD3 enzyme assay on MEKK2 protein substrate, scintillation proximity assay). As to conditions: 3H-SAM, SPA, IC50 values are an average of n = 1 to n = 50, read-out: SMYD3 Biochem IC50. From the text:
S-adenosylmethionine (SAM), S-adenosylhomocysteine (SAH), Tris, Tween20, dimethylsulfoxide (DMSO), bovine skin gelatin (BSG), and Tris(2-carboxyethyl)phosphine hydrochloride solution (TCEP) were purchased from Sigma-Aldrich at the highest level of purity possible. ^3H-SAM was purchase from American Radiolabeled Chemicals with a specific activity of 80 Ci/mmol. 384-well opaque white OptiPlates and SPA beads (Perkin Elmer, catalog # RPNQ0013) were purchased from PerkinElmer.
N-terminally GST-tagged MEKK2 (MAP3K2) protein corresponding to reference sequence AAF63496.3 was purchased from Life Technologies (catalog # PV4010). […] Protein identity was confirmed by MS/MS analysis after proteolytic digestion. The protein sequence used was:
Full-length human SMYD3 isoform 1 (BAB86333) was inserted into a modified pET21b plasmid containing a His6 tag and TEV and SUMO cleavage sites. Because two common variants of SMYD3 exist in the population, site directed mutagenesis was subsequently performed to change amino acid 13 from an asparagine to a lysine, resulting in plasmid pEPZ533.
E. coli (BL21 codonplus RIL strain, Stratagene) were transformed with plasmid pEPZ553 by mixing competent cells and plasmid DNA and incubating on ice for 30minutes followed by heat shock at 42° C. for 1 minute and cooling on ice for 2 minutes. Transformed cells were grown and selected on LB agar with 100 μg/mL ampicillin and 17 μg/mL chloramphenicol at 37° C. overnight. A single clone was used to inoculate 200 mL of LB medium with 100 μg/mL ampicillin and 17 μg/mL chloramphenicol and incubated at 37° C. on an orbital shaker at 180 rpm. Once in log growth, the culture was diluted 1:100 into 2 L of LB medium and grown until OD600 was about 0.3 after which the culture was incubated at 15° C. and 160 rpm. Once OD600 reached about 0.4, IPTG was added to a final concentration of 0.1 mM and the cells were grown overnight at 15° C. and 160 rpm. Cells were harvested by centrifugation at 8000 rpm, for 4 minutes at 4° C. and stored at −80° C. for purification.
The column was washed with Buffer B (Buffer A plus 20 mM imidazole) and His-tagged SMYD3 was eluted with Buffer C (Buffer A plus 300 mM imidazole). The His tag, TEV and SUMO cleavage sites were removed generating native SMYD3 by addition of ULP1 protein at a ratio of 1:200 (ULP1:SMYD3). Imidazole was removed by dialysis overnight in Buffer A. The dialyzed solution was applied to a second Nickel column and the native SMYD3 protein was collected from the column flow-through. The flow-through was dialyzed in Buffer D (25 mM Tris, 5% glycerol, 5 mM β-mercaptoethanol, 50 mM NaCl, pH7.8) and ULP1 was removed using a Q sepharose fast flow column.
General Procedure for SMYD3 Enzyme Assays on MEKK2 Protein Substrate
The assays were all performed in a buffer consisting of 25 mM Tris-Cl pH 8.0, 1 mM TCEP, 0.005% BSG, and 0.005% Tween 20, prepared on the day of use. Compounds in 100% DMSO (1 ul) were spotted into a 384-well white opaque OptiPlate using a Bravo automated liquid handling platform outfitted with a 384-channel head (Agilent Technologies). DMSO (1 ul) was added to Columns 11, 12, 23, 24, rows A-H for the maximum signal control and 1 ul of SAH, a known product and inhibitor of SMYD3, was added to columns 11, 12, 23, 24, rows I-P for the minimum signal control. A cocktail (40 ul) containing the SMYD3 enzyme was added by Multidrop Combi (Thermo-Fisher). The compounds were allowed to incubate with SMYD3 for 30 min at room temperature, then a cocktail (10 ul) containing SAM and MEKK2 was added to initiate the reaction (final volume=51 ul).
On the technique in general: SPA uses beads or plates that emit light when radiolabelled molecules are held near them.
Regarding `O=C(CCN1CCOCC1)N[C@H]1CC[C@H](NC(=O)c2cc(C3CC3)on2)CC1` [compound 15, 5-cyclopropyl-N-((1r,4r)-4-(3-morpholino-propanamido)cyclohexyl) isoxazole-3-carboxamide], the 50% inhibitory concentration (IC50) is 20.4 µM.
For `NC1CCC1C(=O)N[C@H]1CC[C@H](NC(=O)c2cc(C3CC3)on2)CC1` (stereo partly drawn) [Cpd. No. 3, N-((1r,4r)-4-(2-amino-cyclobutane-1-carboxamido)cyclo-hexyl)-5-cyclopropylisoxazole-3-carboxamide], the IC50 came out at 0.545 µM.
The result for `NCCS(=O)(=O)N[C@H]1CC[C@H](NC(=O)c2cc(C3CC3)on2)CC1` [compound 29, N-((1r,4r)-4-((2-aminoethyl)sulfonamido)cyclohexyl)-5-cyclopropylisoxazole-3-carboxamide] reads 2.9 µM; that for `CN1CCN(CCC(=O)N[C@H]2CC[C@H](NC(=O)c3cc(C4CC4)on3)CC2)CC1` [compound 10, 5-cyclopropyl-N-((1r,4r)-4-(3-(4-methylpiperazin-1-yl)propanamido)cyclohexyl)isoxazole-3-carboxamide], 7.72 µM.
On to `C[C@H](N)CC(=O)N[C@H]1CC[C@H](N(C)C(=O)c2cc(C3CC3)on2)CC1` [compound 58, N-((1S,4r)-4-((S)-3-aminobutanamido)cyclohexyl)-5-cyclopropyl-N-methylisoxazole-3-carboxamide], for which the IC50 was 6.11 µM.
`CC(C)CN(C(=O)c1cc(C2CC2)on1)[C@H]1CC[C@H](NC(=O)C[C@@H](C)N)CC1` [compound 47, N-((1R,4r)-4-((R)-3-aminobutanamido)cyclohexyl)-5-cyclopropyl-N-isobutylisoxazole-3-carboxamide]: the IC50 turned out to be 3.12 µM.
For the molecule `C[C@@H](N)CC(=O)N[C@H]1CC[C@H](N(Cc2ccccc2)C(=O)c2cc(C3CC3)on2)CC1` [compound 45, N-((1R,4r)-4-((R)-3-aminobutanamido)cyclohexyl)-N-benzyl-5-cyclopropylisoxazole-3-carboxamide], the IC50 was 8.22 µM.
Consider `NCCCS(=O)(=O)N[C@H]1CC[C@H](NC(=O)c2cc(C3CC3)on2)CC1` [Cpd. No. 34, N-((1r,4r)-4-((3-amino-propyl)sulfonamido)cyclohexyl)-5-cyclopropylisoxazole-3-carboxamide], for which the IC50 came out at 1.34 µM.
For `COCCN(C(=O)c1cc(C2CC2)on1)[C@H]1CC[C@H](NC(=O)CCN)CC1` [compound 44, N-((1r,4r)-4-(3-aminopropanamido)cyclohexyl)-5-cyclopropyl-N-(2-methoxyethyl)isoxazole-3-carboxamide], the IC50 was 16.4 µM.
In the case of `NCCC(=O)N(CCCO)[C@H]1CC[C@H](NC(=O)c2cc(C3CC3)on2)CC1` [compound 38, N-((1r,4r)-4-(3-amino-N-(3-hydroxypropyl)propanamido)cyclohexyl)-5-cyclopropylisoxazole-3-carboxamide], the IC50 was determined as 1.2 µM.
Regarding `NCCC(=O)N(CCO)[C@H]1CC[C@H](NC(=O)c2cc(C3CC3)on2)CC1` [compound 9, N-((1r,4r)-4-(3-amino-N-(2-hydroxyethyl)propanamido)cyclohexyl)-5-cyclo-propylisoxazole-3-carboxamide], the IC50 was 2.28 µM.
With `N[C@H]1C[C@H](C(=O)N[C@H]2CC[C@H](NC(=O)c3cc(C4CC4)on3)CC2)C1` [compound 22, N-((1R,4r)-4-((1r,3R)-3-aminocyclobutane-1-carboxamido)cyclohexyl)-5-cyclopropylisoxazole-3-carboxamide], the 50% inhibitory concentration (IC50) amounted to 0.269 µM.
As for `C[C@@H](N)CC(=O)N[C@H]1CC[C@H](N(C)C(=O)c2cc(C3CC3)on2)CC1` [compound 56, N-((1R,4r)-4-((R)-3-aminobutanamido)cyclohexyl)-5-cyclopropyl-N-methylisoxazole-3-carboxamide], the IC50 came to 9.28 µM.
For `NCCC(=O)N[C@H]1CC[C@H](N(CCc2ccccc2)C(=O)c2cc(C3CC3)on2)CC1` [compound 42, N-((1r,4r)-4-(3-aminopropanamido)cyclohexyl)-5-cyclopropyl-N-phenethylisoxazole-3-carboxamide], the IC50 came out at 10.8 µM.
The result for `NCCC(=O)N[C@H]1CC[C@H](N(Cc2ccccc2)C(=O)c2cc(C3CC3)on2)CC1` [compound 46, N-((1r,4r)-4-(3-aminopropanamido)cyclohexyl)-N-benzyl-5-cyclopropylisoxazole-3-carboxamide] reads 4.34 µM; that for `CC(CN)C(=O)N[C@H]1CC[C@H](NC(=O)c2cc(C3CC3)on2)CC1` (stereo partly drawn) [compound 8, N-((1r,4r)-4-(3-amino-2-methylpropanamido)cyclohexyl)-5-cyclopropylisoxazole-3-carboxamide], 0.654 µM.
Next, `C[C@H](N)CC(=O)N[C@H]1CC[C@H](N(CCc2ccccc2)C(=O)c2cc(C3CC3)on2)CC1` [compound 54, N-((1S,4r)-4-((S)-3-aminobutanamido)cyclohexyl)-5-cyclopropyl-N-phenethylisoxazole-3-carboxamide]: 11.6 µM.
On to `C[C@@H](N)CC(=O)N[C@H]1CC[C@@H](N(C)C(=O)c2cc(C3CC3)on2)CC1` [compound 55, N-((1S,4s)-4-((R)-3-aminobutanamido)cyclohexyl)-5-cyclopropyl-N-methylisoxazole-3-carboxamide], for which the IC50 was found to be 24.4 µM.
Turning to `NCCCN[C@H]1CC[C@H](NC(=O)c2cc(C3CC3)on2)CC1` [compound 23, N-((1r,4r)-4-((3-aminopropyl)amino)cyclohexyl)-5-cyclopropylisoxazole-3-carboxamide], the IC50 was found to be 0.342 µM.
In the case of `COCCN(C(=O)c1cc(C2CC2)on1)[C@H]1CC[C@H](NC(=O)C[C@@H](C)N)CC1` [compound 40, N-((1R,4r)-4-((R)-3-aminobutanamido)cyclohexyl)-5-cyclopropyl-N-(2-methoxyethyl)isoxazole-3-carboxamide], the IC50 amounted to 9.69 µM.
The result for `CC(C)CN(C(=O)c1cc(C2CC2)on1)[C@H]1CC[C@H](NC(=O)CCN)CC1` [compound 43, N-((1r,4r)-4-(3-aminopropanamido)cyclohcxyl)-5-cyclopropyl-N-isobutylisoxazole-3-carboxamide] reads 4.49 µM; that for `CN(C(=O)c1cc(C2CC2)on1)[C@H]1CC[C@@H](NC(=O)CCN)CC1` [compound 59, N-((1s,4s)-4-(3-aminopropanamido)cyclohexyl)-5-cyclopropyl-N-methylisoxazole-3-carboxamide], 36.6 µM; that for `C[C@H](N)CC(=O)N[C@H]1CC[C@@H](N(C)C(=O)c2cc(C3CC3)on2)CC1` [compound 57, N-((1R,4s)-4-((S)-3-aminobutanamido)cyclohexyl)-5-cyclopropyl-N-methylisoxazole-3-carboxamide], 25.8 µM.
On to `NCCC(=O)N[C@H]1CC[C@H](N(CCO)C(=O)c2cc(C3CC3)on2)CC1` [compound 52, N-((1r,4r)-4-(3-aminopropanamido)cyclohexyl)-5-cyclopropyl-N-(2-hydroxyethyl)isoxazole-3-carboxamide], for which the IC50 was found to be 16.8 µM.
With `CC(N)CC(=O)N[C@H]1CC[C@H](NC(=O)c2cc(C3CC3)on2)CC1` (stereo partly drawn) [compound 1, N-((1r,4r)-4-(3-aminobutanamido)cyclohexyl)-5-cyclopropylisoxazole-3-carboxamide], the IC50 was found to be 0.466 µM.
Regarding `O=C(CCN1CCNCC1)N[C@H]1CC[C@H](NC(=O)c2cc(C3CC3)on2)CC1` [compound 17, 5-cyclopropyl-N-((1r,4r)-4-(3-(piperazin-1-yl)propanamido)cyclohexyl)isoxazole-3-carboxamide], the IC50 stood at 1.15 µM.
On to `CCc1cc(C(=O)N[C@H]2CC[C@H](N)C[C@H]2CC)no1` [compound 2, N-((1S,2R,4S)-4-amino-2-ethylcyclohexyl)-5-ethylisoxazole-3-carboxamide], for which the IC50 turned out to be 2.44 µM.
